What was measured:
Type in all cases: cell-based, human
MRC-5 fibroblasts = experiment: Neutral red uptake viability assay, MRC-5; conditions: for survival rate: MRC-5, 10 μM, 72 h exposure, n = 3, ± SD
Procedure: (§1) The normal lung fibroblast MRC-5 and colorectal adenocarcinoma SW620 cell lines used in this experiment were purchased from American Type Culture Collection (USA) via LGC […]
(§2) Standards. Multidrug-resistant variants of SW620 cells were developed in our laboratory as described previously.10, 11 All cells were cultured under standard conditions (37°C, 5% CO2, 100% humidity) in high-glucose DMEM supplemented with GlutaMaxTM, HEPES (ThermoFisher Scientific, USA), and 10% fetal bovine serum (EURx, Poland). Cells were routinely tested for potential Mycoplasma contamination using the MycoProbe Mycoplasma Detection kit (R&D System, USA).
(§3) In total, 104 cells in 100 µL of complete medium were plated per well of a 96-well plate and left overnight to allow cells to adhere to the surface. Then, the cells were exposed to a desired concentration of tested compound(s). Stock solutions were prepared in DMSO and used immediately. The final DMSO concentration was constant and nontoxic (0.1% v/v). After 70-h incubation, neutral red was added to the final concentration of 1 mM. After another 2 h, the medium was aspirated, and cells were washed twice with PBS. Dye was released using 100 µL of a solubilizer (1% acetic acid in 50% ethanol) on an orbital shaker (10 min). Absorbance was read at 540 nm using EnVision Multilabel Plate Reader (Perkin Elmer, USA). Results were expressed as % of control. The IC50 parameters were calculated using GraphPad Prism version 10 (GraphPad Software, Boston, Massachusetts USA). […]
(§4) All experiments were performed in triplicate (n = 3).

[1] = test system: SW620D cells (doxorubicin-resistant); experiment: Neutral red uptake viability assay, SW620D; conditions: 72 h; for survival rate: n = 3, ± SD
Procedure: (§5) In general, compounds 4a–e exerted little or no cytotoxic effect on either SW620 or multidrug-resistant sublines even at 10 μM, with the remarkable exception of SW620C (cisplatin-selected variant of SW620) cells, which turned out to be relatively susceptible toward ferrocenyl 4a–c. […] This trend may reflect steric or electronic contributions to cellular uptake or interaction with intracellular targets. […] However, since E/Z isomeric data are currently available only for compound 4c, this hypothesis requires validation. To quantify this effect, IC50 values were determined (Table ). […]
as §1, §2
(§6) In total, 104 cells in 100 µL of complete medium were plated per well of a 96-well plate and left overnight to allow cells to adhere to the surface. Then, the cells were exposed to a desired concentration of tested compound(s). Stock solutions were prepared in DMSO and used immediately. The final DMSO concentration was constant and nontoxic (0.1% v/v). After 70-h incubation, neutral red was added to the final concentration of 1 mM. After another 2 h, the medium was aspirated, and cells were washed twice with PBS. Dye was released using 100 µL of a solubilizer (1% acetic acid in 50% ethanol) on an orbital shaker (10 min). Absorbance was read at 540 nm using EnVision Multilabel Plate Reader (Perkin Elmer, USA). Results were expressed as % of control. The IC50 parameters were calculated using GraphPad Prism version 10 (GraphPad Software, Boston, Massachusetts USA).
(§7) The enhancement of reversal potency (ERP) value determination
(§8) For MDR reversal assays, cytotoxic agents were co-administered with compounds 4a–4e at equimolar concentrations in a range of 10 nM to 100 µM. IC₅₀ values were determined in ABCB1-overexpressing SW620 cell line variants. The enhancement of reversal potency (ERP) was calculated using the following formula: ERP = IC₅₀(drug)MDR / IC₅₀(drug + compound)MDR. All experiments were performed in triplicate (n = 3).

[2] = test system: SW620M cells (methotrexate-resistant); experiment: Neutral red uptake viability assay, SW620M; conditions: 72 h; for survival rate: n = 3, ± SD
Procedure: as §5, §1, §2, §3, §4

[3] = test system: SW620V cells (vincristine-resistant); experiment: Neutral red uptake viability assay, SW620V; conditions: 72 h; for survival rate: n = 3, ± SD
Procedure: as §5, §1, §2, §6, §7, §8

[4] = test system: SW620Mito cells (mitoxantrone-resistant); experiment: Neutral red uptake viability assay, SW620Mito; conditions: 72 h; for survival rate: n = 3, ± SD
Procedure: as §5, §1, §2, §3, §4

[5] = test system: ABCB1-overexpressing SW620E cells; experiment: MDR reversal assay (ERP), SW620E; conditions: for ERP value, etoposide + compound: SW620E (xlsx); for ERP = IC50(drug)MDR/IC50(drug+4)MDR: etoposide, SW620E
Text: (§9) We investigated the potency of 4a–e to inhibit ABC transporters (ABCB1, ABCC1, and ABCG2) by determining their enhancement of reversal potency (ERP) values. ERP represents fold changes in the IC50 values of anticancer drugs in multidrug-resistant cancer sublines (ABCB1-overexpressing SW620D, SW620E, and SW620V; ABCC1-overexpressing SW620M; ABCG2-overexpressing SW620C and SW620Mito) exposed to a combination of the investigated compounds and anticancer agents at equimolar concentrations, compared with values obtained with drugs alone (Tables S2 and S3 and Figure ).
as §2, §6, §7, §8

[6] = test system: ABCB1-overexpressing SW620V cells; experiment: MDR reversal assay (ERP), SW620V; conditions: for ERP value, vincristine + compound: SW620V (xlsx); for ERP = IC50(drug)MDR/IC50(drug+4)MDR: vincristine, SW620V
Text: as §9, §2, §6, §7, §8

[7] = test system: ABCC1-overexpressing SW620M cells; experiment: MDR reversal assay (ERP), SW620M; conditions: for ERP value, methotrexate + compound: SW620M (xlsx); for ERP = IC50(drug)MDR/IC50(drug+4)MDR: methotrexate, SW620M
Text: as §9, §2, §6, §7, §8

[8] = test system: ABCG2-overexpressing SW620C cells; experiment: MDR reversal assay (ERP), SW620C; conditions: for ERP value, cisplatin + compound: SW620C (xlsx); for ERP = IC50(drug)MDR/IC50(drug+4)MDR: cisplatin, SW620C
Text: as §9, §2, §6, §7, §8

SW620 cells = experiment: Synergy determination (Bliss model, SynergyFinder), SW620;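 further: score below −10 means likely antagonism and −10 to 10 means additive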
Text: (§10) In an ideal setting, the effect of cell exposure to a combination of a chemotherapeutic and an MDR inhibitor should be synergistic. […] The highest synergy scores identified an optimal concentration range where the combination exerted its maximal effect. […] In cisplatin-resistant SW620C cells, the low or lack of synergy observed for most compounds may be due to the additive effects of cisplatin and 4 rather than a true synergistic interaction. […]
(§11) To evaluate the potential interactions between putative ABC inhibitors and anticancer drugs, we utilized the Bliss independence model, as implemented in the SynergyFinder web application.13, 14 Synergy scores and the most synergistic area scores were calculated based on the normalized dose–response matrices. A synergy score below −10 indicates likely […]
(§12) above 10 is indicative of likely synergistic interactions.
(§13) All experiments were performed at least three times, and the data were statistically analyzed

SW620C cells = experiment: Synergy determination (Bliss model, SynergyFinder), SW620C; conditions: drug cisplatin + additive
Text: as §10, §11, §12, §13

SW620E cells = experiment: Synergy determination (Bliss model, SynergyFinder), SW620E; conditions: drug etoposide + additive; for synergy score: Bliss model
Text: as §10, §11, §12, §13

[9] = n = 3, read-out: Cytotoxic activity IC50 (95% CI)

Row | Structure (SMILES) | survival rate (MRC-5 fibroblasts) [%] | survival rate ([1]; 1 μM) [%] | survival rate ([1]; 10 μM) [%] | survival rate ([2]; 1 μM) [%] | survival rate ([2]; 10 μM) [%] | survival rate ([3]; 1 μM) [%] | survival rate ([3]; 10 μM) [%] | survival rate ([4]; 1 μM) [%] | survival rate ([4]; 10 μM) [%] | ERP value, etoposide + compound [5] | ERP = IC50(drug)MDR/IC50(drug+4)MDR [5] | ERP value, vincristine + compound [6] | ERP = IC50(drug)MDR/IC50(drug+4)MDR [6] | ERP value, methotrexate + compound [7] | ERP = IC50(drug)MDR/IC50(drug+4)MDR [7] | ERP value, cisplatin + compound [8] | ERP = IC50(drug)MDR/IC50(drug+4)MDR [8] | synergy score (in parentheses) (SW620 cells; drug cisplatin + additive) | synergy score (in parentheses) (SW620 cells; drug etoposide + additive) | synergy score (in parentheses) (SW620 cells; drug mitoxantrone + additive) | further results
1 | O=C1N/C(=C\c2ccc(-[c-]3cccc3)cc2)C(=O)N2CCC[C@@H]12.[Fe+2].c1cc[cH-]c1 [(S,Z)-4d] | 101 ± 7 | 92 ± 0.8 | 96 ± 0.9 | 99 ± 0.8 | 95 ± 1.5 | 94 ± 2.9 | 95 ± 3.2 | 98 ± 0.9 | 93 ± 1.1 | 5.84 | 5.84 | 12.7 | 12.7 | 0.84 | 0.84 | 2.58 | 2.58 | −2.46 | 0.64 | -1.93 | IC50 [1, 9]: > 100 µM; IC50 [2, 9]: > 100 µM; IC50 [3, 9]: > 100 µM; IC50 [4, 9]: > 100 µM; synergy score (in parentheses) (SW620 cells; drug methotrexate + additive): −2.64; synergy score (in parentheses) (SW620 cells; drug vincristine + additive): -1.29; most synergistic area score (SW620C cells): 13.42; most synergistic area score (SW620E cells): 26.95; synergy score (SW620E cells): 16.02
2 | O=C1N/C(=C\c2ccccc2)C(=O)N2CCC[C@@H]12 [(S,Z)-4e] | 102 ± 6 | 96 ± 0.7 | 94 ± 2.9 | 96 ± 4.8 | 95 ± 4.0 | 98 ± 0.9 | 99 ± 1.4 | 92 ± 1.3 | 94 ± 1.8 | 0.88 | 0.88 | 1.27 | 1.27 | 1.28 | 1.28 | 0.70 | 0.70 | −3.94 | −3.96 | 1.87 | Surviwal rate of MRC-5 at 10 microM (MRC-5 fibroblasts; MRC-5, 10 microM (xlsx)): 102_6; synergy score (in parentheses) (SW620 cells; drug doxorubicin + additive): −3.90; most synergistic area score (SW620C cells): 6.66; synergy score (SW620C cells; Bliss model): –3.14; most synergistic area score (SW620E cells): 2.22; synergy score (SW620E cells): –2.56

Source: paper PMC12257394, “Design, Synthesis, and Biological Evaluation of Ferrocenyl–Cyclo-(Gly‑L‑Pro) Hybrids Sensitizing Multidrug-Resistant Cancer Cells to Anticancer Agents” (ACS Medicinal Chemistry Letters, 2025)
